Assay [1] concerns the target T1, Steroid hormone receptor ERR1 (Homo sapiens, UniProt P11474).
T1 sequence (P11474 whole entry): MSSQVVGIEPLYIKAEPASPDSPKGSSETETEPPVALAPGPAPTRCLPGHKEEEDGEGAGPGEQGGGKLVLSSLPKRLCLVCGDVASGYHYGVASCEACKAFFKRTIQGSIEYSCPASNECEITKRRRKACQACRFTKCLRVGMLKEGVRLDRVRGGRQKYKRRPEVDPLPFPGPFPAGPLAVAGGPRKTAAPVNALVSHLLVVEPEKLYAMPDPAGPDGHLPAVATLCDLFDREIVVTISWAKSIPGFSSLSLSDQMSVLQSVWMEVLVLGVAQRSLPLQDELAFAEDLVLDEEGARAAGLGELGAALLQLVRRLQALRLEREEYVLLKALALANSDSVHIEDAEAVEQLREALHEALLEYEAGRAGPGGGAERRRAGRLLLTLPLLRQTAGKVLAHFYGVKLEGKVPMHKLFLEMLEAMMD
Kind of assay: Binding affinity to ERRalpha ligand binding domain by FRET assay.

For assay [2], the target named is T1, Steroid hormone receptor ERR1. As to the kind of experiment: Binding affinity to wild type ERRalpha ligand binding domain by isothermal titration calorimetry. (In general: In ITC the heat of successive injections is recorded.)
The nature of assay [3]: Binding affinity to ERRalpha C325S mutant ligand binding domain expressed in sf9 cells by isothermal titration calorimetry.

These results are taken from ChEMBL document CHEMBL1156473, “Crystal structure of human estrogen-related receptor alpha in complex with a synthetic inverse agonist reveals its novel molecular mechanism” (J Biol Chem, 2007).

As a reminder, the IC50 is the midpoint of a concentration-inhibition curve. As usually defined, the Kd is the constant that tells how readily two partners part at equilibrium. A low value points to tighter binding.

In turn, `c1ccc(-n2cc(CNCC3CCCCC3)c3ccccc32)cc1` returned an IC50 in assay [1] of 700 nM. Further, the Kd came out at 770 nM in assay [2] and 930 nM in assay [3].
